Results as given in PubChem BioAssay (NCI).
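Values below derive from 48-hour exposures of cells grown in 96-well plates, with endpoints linearly interpolated between the two concentrations bracketing the appropriate inhibition level. The concentration for full growth arrest is given as TGI.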

Legend:
Test in all cases: NCI-60 cell line screen, 48 h
HCT-15 colon = test system: HCT-15 colon
OVCAR-4 ovarian = test system: OVCAR-4 ovarian
SK-MEL-28 melanoma = test system: SK-MEL-28 melanoma
SNB-75 CNS = test system: SNB-75 CNS
SK-MEL-5 melanoma = test system: SK-MEL-5 melanoma
A549 NSCLC = test system: A549 NSCLC
HT29 colon = test system: HT29 colon
HCT-116 colon = test system: HCT-116 colon
CCRF-CEM leukemia = test system: CCRF-CEM leukemia
HOP-62 NSCLC = test system: HOP-62 NSCLC
SK-MEL-2 melanoma = test system: SK-MEL-2 melanoma
NCI-H226 lung = test system: NCI-H226 lung
COLO 205 colon = test system: COLO 205 colon
TK-10 renal = test system: TK-10 renal
NCI-H522 lung = test system: NCI-H522 lung
SNB-78 CNS = test system: SNB-78 CNS
KM12 colon = test system: KM12 colon
HOP-18 NSCLC = test system: HOP-18 NSCLC
HL-60(TB) leukemia = test system: HL-60(TB) leukemia
DMS 273 small cell lung = test system: DMS 273 small cell lung
UACC-257 melanoma = test system: UACC-257 melanoma
MALME-3M melanoma = test system: MALME-3M melanoma
MOLT-4 leukemia = test system: MOLT-4 leukemia
SK-OV-3 ovarian = test system: SK-OV-3 ovarian
XF 498 CNS = test system: XF 498 CNS
M19-MEL melanoma = test system: M19-MEL melanoma
UACC-62 melanoma = test system: UACC-62 melanoma
SF-268 CNS = test system: SF-268 CNS
LOX IMVI melanoma = test system: LOX IMVI melanoma
NCI-H460 lung = test system: NCI-H460 lung
SW-620 colon = test system: SW-620 colon
EKVX NSCLC = test system: EKVX NSCLC
DMS 114 small cell lung = test system: DMS 114 small cell lung
LXFL 529 NSCLC = test system: LXFL 529 NSCLC
SN12C renal = test system: SN12C renal
786-0 renal = test system: 786-0 renal
SF-295 CNS = test system: SF-295 CNS
ACHN renal = test system: ACHN renal
SR leukemia = test system: SR leukemia
M14 melanoma = test system: M14 melanoma
RXF 393 renal = test system: RXF 393 renal
OVCAR-8 ovarian = test system: OVCAR-8 ovarian
U251 CNS = test system: U251 CNS
K-562 leukemia = test system: K-562 leukemia
SNB-19 CNS = test system: SNB-19 CNS
UO-31 renal = test system: UO-31 renal
KM20L2 colon = test system: KM20L2 colon
RPMI-8226 leukemia = test system: RPMI-8226 leukemia
NCI-H23 lung = test system: NCI-H23 lung

Measured: TGI

Cc1ccc(NC(=O)CSc2nnc(Cc3ccccc3)o2)c(C)c1
> 100 µM: all assays above
